Measured values published in ChEMBL document CHEMBL1649585, “Role of the Mycobacterium tuberculosis P55 efflux pump in intrinsic drug resistance, oxidative stress responses, and growth” (2009).

What was measured:
Type in all cases: functional
[1] = tested on: Mycobacterium tuberculosis; assay: Downregulation of p27 gene expression Mycobacterium tuberculosis by microarray
[2] = tested on: Mycobacterium tuberculosis; assay: Upregulation of p55 gene expression Mycobacterium tuberculosis by microarray
[3] = tested on: Mycobacterium tuberculosis; assay: Downregulation of p55 gene expression Mycobacterium tuberculosis by microarray
[4] = tested on: Mycobacterium tuberculosis; assay: Upregulation of p27 gene expression in Mycobacterium tuberculosis by microarray

Measured: fold change (FC)

O=[N+]([O-])c1cn2c(n1)OC[C@@H](OCc1ccc(OC(F)(F)F)cc1)C2 [PRETOMANID]
>=2: all assays above

CC(C)[C@@H]1NC(=O)[C@H](C)OC(=O)[C@@H](C(C)C)NC(=O)[C@@H](C(C)C)OC(=O)[C@H](C(C)C)NC(=O)[C@H](C)OC(=O)[C@@H](C(C)C)NC(=O)[C@@H](C(C)C)OC(=O)[C@H](C(C)C)NC(=O)[C@H](C)OC(=O)[C@@H](C(C)C)NC(=O)[C@@H](C(C)C)OC1=O [VALINOMYCIN]
>=2: all assays above

CN(C)CCCN1c2ccccc2Sc2ccc(Cl)cc21 [CHLORPROMAZINE]
>=2: all assays above

CO[C@@H]1[C@@H](OC(N)=O)[C@@H](O)[C@H](Oc2ccc3c(O)c(NC(=O)c4ccc(O)c(CC=C(C)C)c4)c(=O)oc3c2C)OC1(C)C [NOVOBIOCIN]
>=2: all assays above

CC1=CC(=O)c2ccccc2C1=O [MENADIONE]
>=2: all assays above

CC(C)/N=c1\cc2n(-c3ccc(Cl)cc3)c3ccccc3nc-2cc1Nc1ccc(Cl)cc1 [CLOFAZIMINE]
>=2: all assays above

Oc1cc(Cl)ccc1Oc1ccc(Cl)cc1Cl [TRICLOSAN]
>=2: all assays above

CSc1ccc2c(c1)N(CCC1CCCCN1C)c1ccccc1S2 (configuration not stated) [THIORIDAZINE]
>=2: all assays above
